{"source": "patent US20030228572A1", "about": "“Method of determining the efficacy of a compound in treating microbial infection” (priority 1998, published 2003)", "key": {"[1]": {"system": "blood cultures containing OSSA", "assay": "Direct detection in blood cultures by the impedance method", "format": "cell-based, S. aureus", "settings": "oxacillin 2 μg/ml; 57 of 58 blood cultures containing OSSA; within an incubation period of 24 h", "procedure": "(§1) Blood specimens were collected at the National Cheng Kung University Hospital during a period in 1996. The BACTEC NR6A and NR7A vials (containing about 30 ml of liquid media; Becton Dickinson Microbiology Systems) were normally inoculated with 3 to 5 ml of blood from the patients, inserted into a BACTEC NR660 instrument (Becton Dickinson Microbiology Systems), and incubated at 37° C. A small aliquot (0.1 to 0.2 ml) of the culture broth was drawn from the vials showing growth of gram-positive cocci (as determined by Gram stain), heated in a boiling water bath for 15 min, and tested for thermonuclease activities on slides coated with toluidine blue-DNA agar (Bennett et al., Staphylococcus aureus, pp. 161-166, In: Bacteriological Analytical Manual, 7th ed. Association of Official Analytical Chemists International, Arlington, Va., 1992). A positive thermonuclease reaction was the development of a pink halo extending at least 1 mm from the periphery of the reaction well. […] The modules were incubated at 37° C. and DTs of the wells were automatically determined by the instrument or by manual inspection of the impedance curves. A vial was designated as ORSA or OSSA positive according to the same parameters set for pure stock cultures. […]"}, "[2]": {"system": "blood cultures containing ORSA", "assay": "Direct detection in blood cultures by the impedance method", "format": "cell-based, S. aureus", "settings": "oxacillin 2 μg/ml; 36 of 38 vials containing ORSA", "procedure": "as §1"}, "[3]": {"system": "S. aureus ATCC 33591 (ORSA)", "assay": "Impedance growth curves (detection time, DT) on Mueller-Hinton agar with oxacillin, BACTOMETER M-128", "format": "cell-based", "settings": "for DT (detection time): Mueller-Hinton agar, without oxacillin 5.3 h", "procedure": "(§2) Mueller-Hinton agar containing different concentrations of oxacillin (0 to 128 μg) was prepared by two-fold serial dilutions, and 0.6 ml of the medium was dispensed into the module wells of […]-128 (bioMerieux Vitek, Hazelwood, Mo.). The three ATCC S. aureus strains were used to observe the effect of oxacillin concentration on the impedance curves during bacterial growth. These strains were subcultured on TSA for 18 to 24 hours (“h”) at 37° C. One single colony on TSA was inoculated into 10 ml of TSB, incubated at 37° C. for several hours, and diluted with 0.1% peptone water to a turbidity of 0.5 McFarland. An aliquot (0.1 ml) of the bacterial suspensions was inoculated into the module well containing Mueller-Hinton agar supplemented with oxacillin. The inoculated modules (each module contains 16 wells) were inserted into the incubator of BACTOMETER set at 37° C. The impedance change in each well was continuously monitored and recorded by the instrument at 6-minute (“min”) intervals for 24 h, and results were obtained graphically as impedance growth curves. DT in hours for each well was automatically determined by the instrument software when three consecutive readings of impedance change exceeded the default value in the instrument, or was manually determined by locating the inflection point (where an accelerating change of impedance was evident) on the impedance curve."}, "[4]": {"system": "S. aureus ATCC 29213 (OSSA)", "assay": "Impedance growth curves (detection time, DT) on Mueller-Hinton agar with oxacillin, BACTOMETER M-128", "format": "cell-based", "settings": "for DT (detection time): Mueller-Hinton agar", "procedure": "as §2"}, "[5]": {"system": "S. aureus ATCC 33592 (ORSA)", "assay": "Impedance growth curves (detection time, DT) on Mueller-Hinton agar with oxacillin, BACTOMETER M-128", "format": "cell-based", "settings": "for DT (detection time): Mueller-Hinton agar, without oxacillin 5.3 h", "procedure": "as §2"}, "[6]": {"system": "clinical S. aureus isolates, OSSA", "assay": "Oxacillin susceptibility test of clinical isolates by the impedance method", "format": "cell-based", "procedure": "(§3) Susceptibility tests of the 235 clinical isolates of S. aureus were performed in a similar way to that used for the ATCC strains, except that only one concentration (2 μg/ml) of oxacillin in Mueller-Hinton agar was used. A negative control (Mueller-Hinton agar without oxacillin) was included for each strain tested. A strain was designated as OSSA if, in the presence of the antibiotic, there was no DT obtained within an incubation period of 24 h. A strain was designated as ORSA if, in the presence of the antibiotic, the DT was not affected or the delay in DT was less than 3 h as compared to the negative control. S. aureus ATCC 29213 (OSSA) and ATCC 33592 (ORSA) were run at the same time as controls. Strains showing discrepant results were reconfirmed by the oxacillin screen agar (Becton Dickinson Microbiology Systems, Cockysville, Md.)."}, "[7]": {"system": "clinical S. aureus isolates, ORSA", "assay": "Oxacillin susceptibility test of clinical isolates by the impedance method", "format": "cell-based", "settings": "for DT in h on Mueller-Hinton agar With Oxacillin (2 μg/ml), mean ± standard deviation: without oxacillin 5.7 ± 0.6 h", "procedure": "as §3"}, "[8]": {"settings": "oxacillin concentration as high as 128 μg/ml"}, "[9]": {"settings": "oxacillin concentration as high as 64 yg/ml"}}}
{"smiles": "Cc1onc(-c2ccccc2)c1C(=O)N[C@@H]1C(=O)N2[C@@H]1SC(C)(C)[C@@H]2C(=O)O", "note": "[oxacillin]", "values": [{"measurement": "DT", "setting": "[1]", "value": "no DTs"}, {"measurement": "average DT", "setting": "[2]", "value": 5.5, "unit": "h"}, {"measurement": "DT (detection time)", "setting": "[3]; oxacillin 32 μg per ml", "value": 6.2, "unit": "h"}, {"measurement": "DT (detection time)", "setting": "[3]; oxacillin 64 μg per ml", "value": 6.8, "unit": "h"}, {"measurement": "DT (detection time)", "setting": "[3]; oxacillin 128 μg per ml", "value": 12.1, "unit": "h"}, {"measurement": "growth", "setting": "[3]; [8]", "value": "not inhibited to a large extent"}, {"measurement": "growth", "setting": "[3]; [9]", "value": "only slightly inhibited"}, {"measurement": "DT (detection time)", "setting": "[4]; oxacillin 0.063 μg per ml, without oxacillin 4.0 h", "value": 4.1, "unit": "h"}, {"measurement": "increase in DT", "setting": "[4]; oxacillin 0.063 μg/ml versus no oxacillin", "value": 0.1, "unit": "h"}, {"measurement": "DT (detection time)", "setting": "[4]; oxacillin 0.125 μg per ml, without oxacillin 4.0 h", "value": 4.1, "unit": "h"}, {"measurement": "increase in DT", "setting": "[4]; oxacillin 0.125 μg/ml versus no oxacillin", "value": 0.1, "unit": "h"}, {"measurement": "DT (detection time)", "setting": "[4]; oxacillin 0.25 μg per ml, within 16 hours", "value": "no DT"}, {"measurement": "growth", "setting": "[4]; oxacillin 0.25 μg/ml", "value": "almost completely inhibited"}, {"measurement": "DT (detection time)", "setting": "[5]; oxacillin 32 μg per ml", "value": 6.3, "unit": "h"}, {"measurement": "DT (detection time)", "setting": "[5]; oxacillin 64 μg per ml", "value": 7.0, "unit": "h"}, {"measurement": "DT (detection time)", "setting": "[5]; oxacillin 128 μg per ml", "value": 9.3, "unit": "h"}, {"measurement": "growth", "setting": "[5]; [8]", "value": "not inhibited to a large extent"}, {"measurement": "growth", "setting": "[5]; [9]", "value": "only slightly inhibited"}, {"measurement": "DT in h (range) on Mueller-Hinton agar With Oxacillin (2 μg/ml)", "setting": "[6]; 84 correctly identified of 86 OSSA strains, 24 h incubation", "value": "—^c (—, DT was not found within an incubation period of 24 h.)"}, {"measurement": "DT", "setting": "[6]; oxacillin 2 μg/ml, 84 of the 86 OSSA strains, within an incubation period of 24 h", "value": "no DT"}, {"measurement": "DT in h (range) on Mueller-Hinton agar With Oxacillin (2 μg/ml)", "setting": "[7]; 141 ORSA strains, range over strains", "value": "4.7 to 9.1", "unit": "h"}, {"measurement": "DT in h on Mueller-Hinton agar With Oxacillin (2 μg/ml), mean ± standard deviation", "setting": "[7]; 141 ORSA strains", "value": "6.0 ± 0.7", "unit": "h"}, {"measurement": "DT in h on Mueller-Hinton agar With Oxacillin (2 μg/ml), mean ± standard deviation", "setting": "[7]; 141 ORSA strains, listed as Oxacillin", "value": "6.0 ± 0.7", "unit": "h"}, {"measurement": "delay in DTs compared to negative controls", "setting": "[7]; oxacillin 2 μg/ml, 141 of 149 ORSA strains (DTs equal to controls or delayed)", "value": "less than 3 h"}, {"measurement": "DT behind the negative control", "setting": "[7]; oxacillin 2 μg/ml, false-negative strain no. 127", "value": 17, "unit": "h"}, {"measurement": "DT", "setting": "[7]; oxacillin 2 μg/ml, false-negative strain no. 127, negative control DT=5.7 h", "value": 22.7, "unit": "h"}, {"measurement": "DT", "setting": "[7]; oxacillin 2 μg/ml, seven of the eight false-negative strains, within an incubation period of 24 h", "value": "no DT"}]}
